Assay results taken from paper PMC2528936, “Snake Cathelicidin from Bungarus fasciatus Is a Potent Peptide Antibiotics” (PLoS ONE, 2008).
≈ marks a conversion by molar mass, not a printed value. Read-outs that look alike come from different tables or passages of the source. Where a SMILES comes first, the peptide text is derived from it. Bridges are numbered along the chain shown (N, C = ends).

Experiments:
[1] = tested on: Chaetomium globosum; settings: saprophytic fungus; 10^5 spores/ml, yeast extract-peptone-dextrose broth; mean of three independent experiments in duplicates; ND = no detectable activity
Experimental: (§1) Antimicrobial activities of cathelicidin-BF and cathelicidin-BF15 ([…]) were tested according to our previous methods [39]–[42]. […] The details were provided in the Materials and Methods S1.
(§2) Standard and clinically isolated microorganism strains were used for antimicrobial assays. Bacteria were first grown in LB (Luria-Bertani) broth to an OD600 nm of 0.8. A 10 µl aliquot of the bacteria was then taken and added to 8 ml of fresh LB broth with 0.7% agar and poured over a 90 mm Petri dish containing 25 ml of 1.5% agar in LB broth. After the top agar hardened, a 20 µl aliquot of the test sample filtered on a 0.22 µm Millipore filter was dropped onto the surface of the top agar and completely dried before being incubated overnight at 37 °C. If the sample examined had antimicrobial activity, a clear zone would be formed on the surface of the top agar representing inhibition of bacterial growth. Minimal inhibitory concentration (MIC) was determined in liquid LB medium by incubating the bacteria in LB broth with variable amounts of the sample tested. The MIC at which no visible growth occurred was recorded. In the assays of anti-fungi activity, for strains of Aspergillus terreus, A. niculans, and Chaetomium globosum, the fungal spore concentration was first counted under a microscope. The fungi with an initial concentration of 10^5 spores/ml were cultured with variable amounts of the sample tested in yeast extract-peptone-dextrose broth.

[2] = tested on: Aspergillus niculans; settings: saprophytic fungus; 10^5 spores/ml, yeast extract-peptone-dextrose broth; mean of three independent experiments in duplicates; ND = no detectable activity
Experimental: as §1, §2

[3] = tested on: Aspergillus terreus GIM3.34; settings: saprophytic fungus; 10^5 spores/ml, yeast extract-peptone-dextrose broth; mean of three independent experiments in duplicates; ND = no detectable activity
Experimental: as §1, §2

[4] = tested on: Candida albicans ATCC2002; assay: microbe, parasite or virus in culture
Experimental: as §1, §2

[5] = tested on: Pseudomonas aeruginosa ATCC27853; assay: microbe, parasite or virus in culture; settings: ATCC27853
Experimental: as §1, §2

[6] = tested on: Bacillus pumilus; assay: microbe, parasite or virus in culture; settings: Bacillus pumilus
Experimental: as §1, §2

[7] = tested on: Bacillus subtilis; assay: microbe, parasite or virus in culture
Experimental: as §1, §2

[8] = tested on: Bacillus cereus; assay: microbe, parasite or virus in culture; settings: Bacillus cereus
Experimental: as §1, §2

[9] = tested on: Staphylococcus aureus ATCC2592; assay: microbe, parasite or virus in culture; settings: ATCC2592
Experimental: as §1, §2

[10] = tested on: Acinetobacter calcoaceticus; assay: microbe, parasite or virus in culture; settings: Acinetobacter calcoaceticus
Experimental: as §1, §2

[11] = tested on: Escherichia coliATCC25922; assay: microbe, parasite or virus in culture
Experimental: as §1, §2

[12] = tested on: K. pneumoniae standard strain; assay: MIC determination, standard strain; format: cell-based; settings: Klebsiella pneumoniae
Experimental: as §1
as §2, with “The fungi with an initial concentration of 10^5 spores/ml were cultured with variable amounts of the sample tested in yeast extract-peptone-dextrose broth.” left out

[13] = tested on: E. coli 08A866(IS, DR); settings: clinically isolated strain, drug resistance for ampicillin and benzylpenicillin; liquid LB broth; mean of three independent experiments in duplicates; ND = no detectable activity
Experimental: as §1, §2

[14] = tested on: E. coli 08A866; format: cell-based, Escherichia coli; settings: for Amount of bacteria co-cultured with sample: Table 4, LB, 35 °C
Experimental: The details were provided in the Materials and Methods S1.
Fresh overnight colonies were added to a total of 20 ml LB, and incubated on a 35 °C water bath. After one hour of incubation, 1 ml broth from each flask was replaced with the test solution. The colony counting was performed at different time after addition of the test solutions as described by Mygind et al.

CC1(C)S[C@@H]2[C@H](NC(=O)Cc3ccccc3)C(=O)N2[C@H]1C(=O)O [benzylpenicillin] was tested, and the MIC [1] was “no effect”, the MIC [2] was “no effect” and the MIC [3] was “no effect”. It also gave an MIC ([4]; Candida albicans) of 0.03 µg/mL (≈ 0.0897 µM), an MIC ([5]; Pseudomonas aeruginosa) of 18.7 µg/mL (≈ 55.9 µM) and an MIC [6] of 0.015 µg/mL (≈ 0.0449 µM). For the same molecule, the MIC ([7]; Bacillus subtilis) was 0.004 µg/mL (≈ 0.012 µM), the MIC [8] was 150 µg/mL (≈ 449 µM) and the MIC ([9]; Staphylococcus aureus) was 0.03 µg/mL (≈ 0.0897 µM). It also gave an MIC [10] of 37.5 µg/mL (≈ 112 µM), an MIC ([11]; Escherichia, COLIATCC25922) of 37.5 µg/mL (≈ 112 µM) and an MIC [12] of 18.7 µg/mL (≈ 55.9 µM).
With CC[C@H](C)[C@H](NC(=O)[C@H](C)NC(=O)[C@@H](NC(=O)[C@@H]1CCCN1C(=O)[C@H](CC(C)C)NC(=O)[C@@H](NC(=O)[C@H](CO)NC(=O)[C@@H](NC(=O)[C@H](C)NC(=O)[C@@H](NC(=O)[C@H](CCCCN)NC(=O)[C@H](CC(C)C)NC(=O)[C@@H](NC(=O)[C@@H]1CCCN1C(=O)CNC(=O)[C@@H](NC(=O)[C@@H](N)Cc1ccccc1)[C@@H](C)CC)C(C)C)[C@@H](C)CC)[C@@H](C)O)[C@@H](C)CC)[C@@H](C)O)C(=O)N[C@H]1CSSC[C@@H](C(=O)O)NC(=O)[C@H](CCCCN)NC(=O)[C@H](CCCCN)NC(=O)[C@H](Cc2ccccc2)NC(=O)[C@H]([C@@H](C)CC)NC(=O)[C@H](CCCCN)NC1=O [HDW] (H-FIGPVLKIATSILPTAICKIFKKC-OH; disulfide 18-24 (inferred); N-terminus and C-terminus assumed) the MIC [13] was 18.7 µg/mL (≈ 7.18 µM), the “Amount of bacteria co-cultured with sample” value (“Amount” below) ([14]; sample at 1 times MIC, time 0.1 min) was 49 CFU and the “Amount” value ([14]; sample at 1 times MIC, time 1 min) was 14.7 CFU. For the same molecule, the “Amount” value ([14]; sample at 1 times MIC, time 10 min) was 0 CFU, the “Amount” value ([14]; sample at 1 times MIC, time 30 min) was 0 CFU and the “Amount” value ([14]; sample at 10 times MIC, time 0.1 min) was 38 CFU. For the same molecule, the “Amount” value ([14]; sample at 10 times MIC, time 1 min) was 3.7 CFU, the “Amount” value ([14]; sample at 10 times MIC, time 10 min) was 0 CFU and the “Amount” value ([14]; sample at 10 times MIC, time 30 min) was 0 CFU. The “time to clean E. coli” value ([14]; killing kinetics during 30 min (Table 4), comparison of cathelicidin-BF and HDW) was “several minutes”, the MIC [4] was 2.3 µg/mL (≈ 0.883 µM) and the MIC [5] was 37.5 µg/mL (≈ 14.4 µM). The MIC [7] was 2.3 µg/mL (≈ 0.883 µM), the MIC [9] was 1.2 µg/mL (≈ 0.461 µM) and the MIC ([11]; ATCC25922) was 18.7 µg/mL (≈ 7.18 µM).
